# Tests used:
# Format in all cases: cell-based
# MMTV-PyMT-T1 cells = assay: LCI-DBP on MMTV breast cancer PDX model; conditions: MMTV-PyMT-T1 cells treated overnight, then BIM BH3 peptide 10 μM final; imaged 0-120 minutes; compared to undrugged (DMSO) cells; FIG. 3A
# Protocol: The plates with cells were stained with 10 μL per well of LCI-Staining Solution for 20 minutes at 37° C. in a 3307 Steri-Cult Incubator, Class 100 HEP. An EL406™ Combination Microplate Washer Dispenser was then used to aspirate the volume in the wells to 10 μL. The plates with cells were washed three times with LCI-Wash buffer to a final residual volume of 10 μL per well using the EL406™ Combination Microplate Washer Dispenser. The plate was then placed on an ImageXpress® Micro 4 High Content Screening System with the required settings, taking an image every two minutes. After two images, 10 μL of the selected LCI-DBP BIM peptide buffer(s) were added to the wells. The plate was then imaged for at most 2 hours.
# As depicted, cells are plated on collagen-coated plates and allowed to incubate for 16-24 hours in the presence of a test agent. […] After all images are acquired, image analysis software is used to quantify differences in TMRE release between drug-treated cells and vehicle-treated cells. […]
# Cells were imaged by live single-cell imaging at 0 minutes, 42 minutes, 50 minutes, 66 minutes, and 120 minutes following BH3 peptide addition (FIG. 3A). Nuclear staining was detected as a blue emission from Hoechst 33342, and mitochondrial transmembrane potential staining was detected as a […] emission from TMRE.
# [1] = test system: Pancreatic 8902 (Panc8902) cell line; assay: Live cell imaging dynamic BH3 profiling (LCI-DBP) on Pancreatic 8902 cell line
# Protocol: Cells were imaged by live single-cell imaging at 18 minutes, 40 minutes, 48 minutes, 58 minutes, and 120 minutes following BH3 peptide addition (FIG. 2A). Nuclear staining was detected as a blue emission from Hoechst 33342, and mitochondrial transmembrane potential staining was detected as a green emission from TMRE. […]
# cells of a sample = assay: LCI-DBP example workflow (FIG. 1A), delta priming compared across treatments; conditions: bar graph of FIG. 1A comparing different treatments; cells not specified
# Protocol: An example workflow of live cell imaging dynamic BH3 profiling (LCI-DBP) is depicted in FIG. 1A. As shown, in some embodiments, cells are plated in a well (e.g., a well of a multi-well plate). In some embodiments, the plated cells are contacted with a test agent or a control solution (e.g., a vehicle solution used with the test agent, such as water, buffer, or a solvent), and the test agent is incubated with the cells for a treatment period. In some embodiments, the treated cells are stained with desired markers for imaging (e.g., nuclear and/or mitochondrial markers). In some embodiments, the cells are then treated with a reagent for measuring MOMP, such as a potentiometric dye. In some embodiments, the stained and treated cells are then contacted with a BH3 peptide. Cells treated with BH3 peptide are imaged by live cell imaging to detect the reagent for measuring MOMP. […] In some embodiments, the loss in emission from the potentiometric dye is evaluated for cells treated with the test agent as compared with cells that were not treated with the test agent. In some embodiments, the difference in emission between treated and untreated cells is determined to obtain a parameter referred to herein as delta priming. Image analysis software, or any suitable algorithm known to one skilled in the art, may be used to determine the difference in emission, or it may be determined manually. […]
compound,measurement,setting,value
CO[C@H]1/C=C\C=C(/C)C(=O)NC2=CC(=O)C(NCCN(C)C)=C(C[C@@H](C)C[C@H](OC)[C@H](O)[C@@H](C)/C=C(\C)[C@@H]1OC(N)=O)C2=O [17-DMAG],"loss in mitochondrial potential, detected as loss in TMRE emission over time",MMTV-PyMT-T1 cells,observable accelerated loss in mitochondrial potential
Cc1c(-c2ccc(N3CCc4cccc(C(=O)Nc5nc6ccccc6s5)c4C3)nc2C(=O)O)cnn1CC12CC3CC(CC(C3)C1)C2 [A1331852],"loss in mitochondrial potential, detected as loss in TMRE emission over time","[1]; Panc8902 cells treated overnight, then BIM BH3 peptide 10 μM final, imaged 18-120 minutes, compared to undrugged (DMSO) cells, FIG. 2A",observable accelerated loss in mitochondrial potential
CC1(C)CCC(c2ccc(Cl)cc2)=C(CN2CCN(c3ccc(C(=O)NS(=O)(=O)c4ccc(N[C@H](CCN5CCOCC5)CSc5ccccc5)c(S(=O)(=O)C(F)(F)F)c4)cc3)CC2)C1 [Navitoclax],delta priming,cells of a sample,highest value for delta priming
same,half-time of TMRE loss in single cells (measurement of apoptotic priming),"[1]; Panc8902 cells, drug 1 μM overnight, BIM BH3 peptide 1 μM final, monitored over 120 minutes, versus DMSO, FIG. 5C",decrease in the half-time of TMRE loss

# Reference: patent publication US12529692B2, “Live cell imaging dynamic BH3 profiling” (Dana-Farber Cancer Institute, Inc., priority 2019, dated 2026)
